Biological target: T1, Calpain-1 catalytic subunit (Homo sapiens, UniProt P07384)
T1 sequence (P07384 whole entry): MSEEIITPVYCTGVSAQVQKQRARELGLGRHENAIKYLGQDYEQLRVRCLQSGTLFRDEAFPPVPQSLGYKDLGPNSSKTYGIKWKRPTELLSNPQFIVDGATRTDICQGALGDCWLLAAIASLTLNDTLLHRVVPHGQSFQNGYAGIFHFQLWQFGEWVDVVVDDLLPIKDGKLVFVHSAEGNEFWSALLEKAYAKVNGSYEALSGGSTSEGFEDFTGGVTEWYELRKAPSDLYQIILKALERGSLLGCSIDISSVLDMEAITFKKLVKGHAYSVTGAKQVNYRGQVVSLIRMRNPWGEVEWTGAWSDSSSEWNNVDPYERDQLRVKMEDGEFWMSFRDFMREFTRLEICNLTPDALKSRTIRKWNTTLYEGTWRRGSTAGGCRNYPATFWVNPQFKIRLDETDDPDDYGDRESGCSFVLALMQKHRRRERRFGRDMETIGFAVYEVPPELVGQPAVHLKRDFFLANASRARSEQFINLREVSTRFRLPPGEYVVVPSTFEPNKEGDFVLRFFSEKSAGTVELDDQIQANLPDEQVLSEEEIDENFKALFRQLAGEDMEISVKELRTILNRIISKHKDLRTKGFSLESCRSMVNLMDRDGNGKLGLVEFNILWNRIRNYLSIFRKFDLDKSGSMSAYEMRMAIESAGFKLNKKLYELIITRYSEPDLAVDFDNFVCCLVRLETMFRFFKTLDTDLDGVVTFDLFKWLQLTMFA
Assay: Inhibitory activity against calpain

NC(=O)CCc1cc[nH]c1
IC50: 1400 nM
